Measured values: article PMC7099625, “Exploration of thiaheterocyclic hHDAC6 inhibitors as potential antiplasmodial agents” (Future Medicinal Chemistry, 2017)
Read-outs that look alike come from different tables or passages of the source.

Legend:
[1] = system: Chinese Hamster Ovary (CHO) cells; assay: MTT in vitro cytotoxicity assay; assay type: cell-based; conditions: triplicate on one occasion
Experimental: Test samples were screened for in vitro cytotoxicity against a mammalian cell-line, Chinese Hamster Ovary (CHO), using the 3-(4,5-dimethylthiazol-2-yl)-2,5-diphenyltetrazoliumbromide (MTT)-assay. The MTT-assay is used as a colorimetric assay for cellular growth and survival, and compares well with other available assays. The tetrazolium salt MTT was used to measure all growth and chemosensitivity. The test samples were tested in triplicate on one occasion. The same stock solutions prepared for antiplasmodial evaluation were used for cytotoxicity testing. Test compounds were stored at -20°C until use. Dilutions were prepared on the day of the experiment. Emetine was used as the reference drug in all experiments. The starting concentration was 100 μg/ml, which was serially diluted in complete medium with tenfold dilutions to give six concentrations, the lowest being 0.001 μg/ml. […] The IC50 values were obtained from full dose–response curves, using a nonlinear dose–response curve fitting analysis via GraphPad Prism v.4 software. […]

[2] = system: P. falciparum (Dd2); assay: Antiplasmodial parasite lactate dehydrogenase assay, chloroquine-resistant strain Dd2; assay type: cell-based, Plasmodium falciparum; conditions: read-out: IC50 Dd2
Experimental: (§1) Continuous in vitro cultures of asexual erythrocyte stages of P. falciparum were maintained using a modified method of Trager and Jensen. Quantitative assessment of antiplasmodial activity in vitro was determined via the parasite lactate dehydrogenase assay using a modified method described by Makler. The test samples were prepared to a 20 mg/ml stock solution in 100% DMSO. Stock solutions were stored at -20°C. Further dilutions were prepared in complete medium on the day of the experiment. CQ and artesunate were used as the reference drugs. A full dose–response was performed to determine the concentration inhibiting 50% of parasite growth (IC50 value). Test samples were tested at a starting concentration of 100 μg/ml, which was then serially diluted twofold in complete medium to give 10 concentrations; with the lowest concentration being 0.2 μg/ml. The same dilution technique was used for all samples. References were tested at a starting concentration of 1 μg/ml.
(§2) The antiplasmodial activity of this set of structures was first determined through a modified parasite lactate dehydrogenase assay against a CQ-sensitive (CQS) strain of P. falciparum (NF54). […] Finally, a selectivity index (SI = IC50 CHO/IC50 NF54) and a resistance index (RI = IC50 Dd2/IC50 NF54) was calculated to be able to easily compare the therapeutic window (active concentration vs toxic concentration) and sensitivity toward resistance developing.

[3] = system: P. falciparum (NF54); assay: Antiplasmodial parasite lactate dehydrogenase assay, chloroquine-sensitive strain NF54; assay type: cell-based, Plasmodium falciparum; conditions: read-out: IC50 NF54
Experimental: as §1, §2

[4] = system: hHDAC6; set-up: method as in PMID 23538448, PMID 25994553, PMID 26822143, PMID 27717044; conditions: hHDAC6 inhibition, previously described; read-out: IC50 HDAC6; cited from earlier work
[5] = chloroquine-resistant (CQR) P. falciparum strain Dd2, asexual erythrocyte stages, pLDH assay
[6] = chloroquine-sensitive (CQS) P. falciparum strain NF54, asexual erythrocyte stages, pLDH assay

IC50 [2, 5] [nM]	IC50 [3, 6] [nM]	SMILES	IC50 [1] [nM]	IC50 [4] [nM]	further results
> 2480	> 2480	O=C(NO)c1ccc(CN2c3cc(Cl)ccc3SCC3CCCC32)cc1 (racemic) [Compound 3b]	41400	650	
> 2290	1530	O=C(NO)c1ccc(CN2c3cc(C(F)(F)F)ccc3SCC3CCCC32)cc1 (racemic) [Compound 3c]	61500	200	
700	870	O=C(NO)c1ccc(CN2c3cc(C(F)(F)F)ccc3S(=O)(=O)CC3CCCC32)cc1 (racemic) [Compound 3f]	56800		
1570	> 2480	O=C(NO)c1ccc(CN2c3cc(Cl)ccc3SCC3CCCC32)cc1 (racemic) [Compound 3i]	50900	160	
2130	1600	O=C(NO)c1ccc(NCc2csc3ccccc23)cc1 [Compound 2a]	12700	14	
	32400	O=C(NO)c1ccc(N(Cc2ccccc2)Cc2csc3ccccc23)cc1 [Compound 2b]			
2400	1020	O=C(NO)c1ccc(NCc2csc3ccc(Br)cc23)cc1 [Compound 2c]	31000	37	
	17800	O=C(NO)c1ccc(N(Cc2ccccc2)Cc2csc3ccc(Br)cc23)cc1 [Compound 2d]			
	5070	O=C(NO)c1ccc(NCc2csc3ccc(-c4ccccc4)cc23)cc1 [Compound 2e]			
	5750	O=C(NO)c1ccc(N(Cc2ccccc2)Cc2csc3ccc(-c4ccccc4)cc23)cc1 [Compound 2f]			
1580	1300	O=C(NO)c1ccc(NCc2csc3cc(Br)ccc23)cc1 [Compound 2g]	46100	64	
	8450	O=C(NO)c1ccc(N(Cc2ccccc2)Cc2csc3cc(Br)ccc23)cc1 [Compound 2h]			
1140	3340	O=C(NO)c1ccc(NCc2csc3cc(-c4ccccc4)ccc23)cc1 [Compound 2i]	31200		
	5020	O=C(NO)c1ccc(N(Cc2ccccc2)Cc2csc3cc(-c4ccccc4)ccc23)cc1 [Compound 2j]			
	36800	Cc1cc(C(=O)NO)ccc1NCc1csc2ccccc12 [Compound 2k]			
> 2700	1590	O=C(NO)c1ccc(CN2c3ccccc3SCC3CCCC32)cc1 (stereo not shown) [Compound 3a]	104000	36	
940		O=C(NO)c1ccc(CN2c3ccccc3S(=O)(=O)CC3CCCC32)cc1 (stereo not shown) [Compound 3d]	108000		
> 2600	1250	O=C(NO)c1ccc(CN2c3ccccc3[S+]([O-])CC3CCCC32)cc1 (stereo not shown) [Compound 3g]	173000	6	
> 2610	> 2610	O=C(NO)c1ccc(CN2c3ccccc3SCC3CCCCC32)cc1 (stereo not shown) [Compound 3h]	87000	33	
> 2610	> 2610	O=C(NO)c1ccc(CN2c3ccccc3SCC3CCCCC32)cc1 (stereo not shown) [Compound 3j]	61700	92	

Further lines, the compound ahead of its results:

SMILES	IC50 [2, 5] [nM]	IC50 [3, 6] [nM]	IC50 [1] [nM]	IC50 [4] [nM]	further results
O=C(NO)c1ccc(Cn2c3c(c4ccccc42)C[S+]([O-])CC3)cc1 (racemic) [Compound 1j]	1300	1280	> 282000	14	
O=C(NO)c1ccc(Cn2c3c(c4cc(F)ccc42)C[S+]([O-])CC3)cc1 (racemic) [Compound 1k]	800		> 269000		
O=C(NO)c1ccc(CN2c3cc(Cl)ccc3S(=O)(=O)CC3CCCC32)cc1 (racemic) [Compound 3e]			35400	68	
C[C@H]1[C@H](OC(=O)CCC(=O)O)O[C@@H]2O[C@@]3(C)CC[C@H]4[C@H](C)CC[C@@H]1[C@@]24OO3 [Artesunate, artesunate, reference compound]					IC50 ([2]; Plasmodium falciparum, chloroquine-resistant (CQR) P. falciparum strain Dd2, asexual erythrocyte stages, pLDH assay): 16 nM; IC50 ([3]; Plasmodium falciparum, chloroquine-sensitive (CQS) P. falciparum strain NF54, asexual erythrocyte stages, pLDH assay): < 10 nM
CCN(CC)CCCC(C)Nc1ccnc2cc(Cl)ccc12 (stereo not shown) [Chloroquine, chloroquine, reference compound]					IC50 ([2]; Plasmodium falciparum, DD2, Erythrocyte): 175 nM; IC50 ([3]; Plasmodium falciparum, NF54, Erythrocyte): 10 nM
O=C(NO)c1ccc(Cn2c3c(c4ccccc42)CSCC3)cc1 [Compound 1a]		37500		15	
COc1cc(C(=O)NO)ccc1Cn1c2c(c3ccccc31)CSCC2 [Compound 1b]		14000			
O=C(NO)c1ccc(Cn2c3c(c4cc(F)ccc42)CSCC3)cc1 [Compound 1c]	3100	2200	105000	22	
COc1cc(C(=O)NO)ccc1Cn1c2c(c3cc(F)ccc31)CSCC2 [Compound 1d]		23200			
O=C(NO)c1ccc(Cn2c3c(c4ccccc42)CS(=O)(=O)CC3)cc1 [Compound 1e]		10800		2	
COc1cc(C(=O)NO)ccc1Cn1c2c(c3ccccc31)CS(=O)(=O)CC2 [Compound 1f]		21000		2000	
O=C(NO)c1ccc(Cn2c3c(c4cc(F)ccc42)CS(=O)(=O)CC3)cc1 [Compound 1g]		15800		4	
COc1cc(C(=O)NO)ccc1Cn1c2c(c3cc(F)ccc31)CS(=O)(=O)CC2 [Compound 1h]		32700		1300	
O=C(NO)c1ccc(Cn2c3c(c4cc(Br)ccc42)CS(=O)(=O)CC3)cc1 [Compound 1i]			109000		
O=C(NO)c1cccc(Cn2c3c(c4ccccc42)CSCC3)c1 [Compound 1n]	2180	1480	> 295000		
O=C(NO)c1cccc(Cn2c3c(c4cc(F)ccc42)CSCC3)c1 [Compound 1o]	1440	1320	48100		
O=C(NO)c1cccc(Cn2c3c(c4ccccc42)CS(=O)(=O)CC3)c1 [Compound 1p]		5450			
O=C(NO)c1cccc(Cn2c3c(c4cc(F)ccc42)CS(=O)(=O)CC3)c1 [Compound 1q]		7840			
O=C(NO)c1cccc(Cn2c3c(c4cc(-c5ccccc5)ccc42)CS(=O)(=O)CC3)c1 [Compound 1r]		8130			
CC[C@H]1CN2CCc3cc(OC)c(OC)cc3[C@@H]2C[C@@H]1C[C@H]1NCCc2cc(OC)c(OC)cc21 [Emetine, reference compound]					IC50 ([1]; Cricetulus griseus): 112 nM
